ChEMBL document CHEMBL3430912, “GSK Tres Cantos Anti-Kinetoplastid Screening (TCAKS) Data”

How the values were obtained:
[1] = target: Sterol 14-alpha demethylase (Trypanosoma cruzi (strain CL Brener), UniProt Q7Z1V1); test: GSK_TCAKS: pIC50 CYP51 from Trypanosoma cruzi.; format: functional
Trypanosoma cruzi [2] = test: (§1) GSK_TCAKS: pIC50 H2C9 Imaging: H9c2 Host Cardiomyocytes. […] Cells were then washed once with PBS before infection. T. cruzi trypomastigotes, collected at days 5 to 8 after infection from LLC-MK2 parasite infected cultures, were allowed to swim out for 4h at 37C from a centrifuged pellet (2,500 rpm/10 min/room temperature). Trypomastigotes were then collected and counted in a CASY Cell Counter. Trypomastigotes, in supplemented DMEM, were added to H9c2 cultures in a multiplicity of infection of 1 and incubated for 18 h. Cells were washed once with PBS before incubation of the infected H9c2 monolayer with trypsin (Life-Technologies) to detach cells from the flask. Cells were counted in a CASY Cell Counter using a 150 um capillary and their density set at 5 * 10^4 cells per mL in supplemented assay DMEM. Infected H9c2 were dispensed into 384-well poly-lysine coated assay plates at 50uL per well using a Multidrop Combi dispenser. After seeding them, the plates were incubated at 37C, 5% CO2 for 72h. Cultures were then fixed and stained by addition of 50 uL of a solution containing 8% formaldehyde and 4 uM DRAQ5 DNA dye (BioStatus, UK) per well. […] Five images were collected per well for reliable statistical analysis. Automated image analysis was performed with a script developed on Acapella High Content Imaging and Analysis Software (PerkinElmer). Output: Number of H9c2 Host Cardiomyocytes nuclei to determine drug-related cytotoxicity.; format: functional, organism-based, Rattus norvegicus; details: H9c2, 4 h
[3] = system: Trypanosoma brucei brucei; test: GSK_TCAKS: pIC50 Trypanosoma brucei viability assay using luminiscence. Assay plates (1536-well) were prepared. T. brucei cultures were harvested and counted in a CASY cell counter. A parasite suspension was prepared at a final concentration of 5 * 10^4 cells/mL in complete HMI9 medium and 6uL was dispensed to all wells containing compounds using a Multidrop Combi dispenser. 6uL of HMI9 media with 0.4% DMSO were dispensed to control columns. Plates were incubated for 24 h at 37C, 5% CO2 then tempered for 10 min at room temperature. ATP content was quantified by adding 4 uL of CellTiter-Glo Reagent (Promega) according to the manufacturer's instructions. Luminescence was measured using a ViewLux.; format: functional, organism-based; details: Lister 427, CASY
Leishmania donovani [4] = test: GSK_TCAKS: pIC50 Leishmania donovani Imaging: Infected Macrophages. Assay plates (384-well) were prepared by adding 250nL of compound to each well. For single shot assay, the final compound concentration was 5 uM. […] Automated image analysis was performed with a script developed on Acapella High Content Imaging and Analysis Software (PerkinElmer). Output: Percent of infected macrophage cells were reported for each well.; format: functional, organism-based, Homo sapiens; details: THP-1
Trypanosoma cruzi [5] = test: GSK_TCAKS: pIC50 Trypanosoma cruzi viability assay using beta-GAL activity. This assay was run at single shot at 5uM compound concentration per well. The biological reagents consisted of NIH-3T3 host cells and trypomastigotes parasitic cells; both cell types were set to a 3.3 * 10^5 cells/mL dilution in assay DMEM by means of a CASY cell counter device using a 60um capillary. 6 uL of the mixture were dispensed per well (about 1 * 10^3 host-cells and 1 * 10^3 parasites) with a Multidrop Combi dispenser. […] In all wells, the percentage of DMSO never exceeded 0.5%. Plates incubated for four days at 37C, 5% CO2. The substrate used for the assay fluorescence intensity (FLINT) readout was resorufin-beta-D-galactopiranoside (Sigma-Aldrich) at 5uM per well. It was diluted in PBS supplemented with the soft detergent Igepal (Fluka).; format: functional, organism-based, Mus musculus; details: Tulahuen, NIH3T3
Trypanosoma cruzi [6] = test: as §1, with “Trypanosoma cruzi” for “H2C9”, “Infected Cells.” for “H9c2 Host Cardiomyocytes.”, “percentage” for “Number”, “infected cells per well as a second infection marker.” for “H9c2 Host Cardiomyocytes nuclei to determine drug-related cytotoxicity.”; format: functional, organism-based, Rattus norvegicus; details: H9c2, 4 h
Trypanosoma cruzi [7] = test: as §1, with “Trypanosoma cruzi” for “H2C9”, “Amastigotes/Cell.” for “H9c2 Host Cardiomyocytes.”, “number” for “Number”, “amastigotes per cell as infection level measurement.” for “H9c2 Host Cardiomyocytes nuclei to determine drug-related cytotoxicity.”; format: functional, organism-based, Rattus norvegicus; details: H9c2, 4 h
[8] = GSK_TCAKS: pIC50 HepG2 human cell line viability assay using luminiscence. […] Seeding density was checked to ensure that new mono-layers were not more than 50% confluent at the time of harvesting. Cell suspension was added to 500 mL of the same medium at a final density of 1.2 * 10^5 cells/mL. This cell suspension was dispensed (25 uL, 3000 cells per well) into 384-well clear-bottom plates using a Multidrop Combi dispenser. Prior to addition of the cell suspension, the screening compounds (250 nL) were pre-dispensed into the plates with an Echo liquid handler. Plates were incubated for 48 h at 37C, 5% CO2. After incubation, plates equilibrated at room temperature for 30 min before proceeding to develop the luminescent signal. The signal developer, CellTiter-Glo Reagent, was allowed to equilibrate at room temperature for 30 min and added to the plates (25uL per well) using a Multidrop Combi dispenser. Plates were left for 10 min at room temperature for stabilization and then read using a ViewLux.; format: toxicity, cell-based
Leishmania donovani [9] = test: GSK_TCAKS: pIC50 Leishmania donovani Imaging: THP-1 Host Macrophages. Assay plates (384-well) were prepared by adding 250nL of compound to each well. For single shot assay, the final compound concentration was 5 uM. […] Automated image analysis was performed with a script developed on Acapella High Content Imaging and Analysis Software (PerkinElmer). Output: THP-1 cell count were reported for each well.; format: functional, organism-based, Homo sapiens
Leishmania donovani [10] = test: GSK_TCAKS: pIC50 Leishmania donovani Imaging: Amastigotes/Macrophages. Assay plates (384-well) were prepared by adding 250nL of compound to each well. For single shot assay, the final compound concentration was 5 uM. […] Automated image analysis was performed with a script developed on Acapella High Content Imaging and Analysis Software (PerkinElmer). Output: Average number of amastigotes per macrophage cell were reported for each well.; format: functional, organism-based, Homo sapiens; details: THP-1
[11] = system: Trypanosoma brucei brucei; test: GSK_TCAKS: pIC50 Trypanosoma brucei viability assay using fluorescence intensity. Assay plates (1536-well) were prepared by dispensing 25nL of compound solution per well using an Echo acoustic dispenser (Labcyte).; format: functional, organism-based; details: Lister 427, 2 h
Leishmania donovani [12] = test: GSK_TCAKS: pIC50 Leishmania donovani viability assay using fluorescence intensity. Assay plates (1536-well) were prepared by adding 30nL per well of compound. For single shot assay, the final compound concentration was 5uM. […] Briefly, eGFP LdBOB axenic amastigotes were harvested, fixed and counted in a CASY cell counter (Roche-Applied Science). A final concentration of 1.5 * 10^5 cells per well were prepared in amastigote media containing 500 U/mL penicillin/streptomycin (Invitrogen) and 6uL was dispensed to each experimental well using a Multidrop Combi dispenser (Thermo Scientific). 6uL of assay media was dispensed to control columns used as reference for 100% compound response. Following incubation for 72 h at 37C, 5% CO2, 2 uL of resazurin was added to each well at a final concentration of 0.5 mM in phosphate buffered saline (PBS) with IGEPAL (Sigma-Aldrich), 0.05% (v/v).; format: functional, organism-based

Sequence of Sterol 14-alpha demethylase (Q7Z1V1 whole entry): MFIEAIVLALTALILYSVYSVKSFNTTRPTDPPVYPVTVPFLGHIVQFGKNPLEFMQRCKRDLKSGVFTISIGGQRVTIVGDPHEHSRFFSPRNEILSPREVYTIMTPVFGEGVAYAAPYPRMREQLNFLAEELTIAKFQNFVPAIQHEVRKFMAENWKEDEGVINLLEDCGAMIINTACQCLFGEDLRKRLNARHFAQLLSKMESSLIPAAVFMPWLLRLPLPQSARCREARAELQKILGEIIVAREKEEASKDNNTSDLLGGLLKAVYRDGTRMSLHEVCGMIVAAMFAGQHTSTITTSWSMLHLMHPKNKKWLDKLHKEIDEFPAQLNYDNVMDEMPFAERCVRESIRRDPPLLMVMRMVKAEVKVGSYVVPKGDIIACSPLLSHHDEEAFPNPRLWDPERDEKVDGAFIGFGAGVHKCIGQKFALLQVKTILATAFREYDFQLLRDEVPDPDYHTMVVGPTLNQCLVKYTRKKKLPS

SMILES | IC50 [1] [µM] | IC50 (Trypanosoma cruzi [2]) [µM] | IC50 [3] [µM] | IC50 (Leishmania donovani [4]) [µM] | IC50 (Trypanosoma cruzi [5]) [µM] | IC50 (Trypanosoma cruzi [6]) [µM] | IC50 (Trypanosoma cruzi [7]) [µM] | IC50 at 48 h [8] [µM] | IC50 (Leishmania donovani [9]) [µM] | IC50 (Leishmania donovani [10]) [µM] | IC50 [11] [µM] | IC50 (Leishmania donovani [12]) [µM]
CC(C)n1c(-c2nonc2N)nc2cccc(OCCN3CCCC3)c21 | 39.8 | 31.6 | 0.794 | 31.6 | 10 | 15.8 | 25.1 | > 100 | 31.6 | 20 | 0.794 | > 50.1
CCCn1c(NC(=O)CCn2cc(Br)cn2)nc2ccccc21 | 10 | 25.1 | 7.94 | 10 | 5.01 | 6.31 | 2.51 | > 100 | > 50.1 | 5.01 | 7.94 | 10
CN(C)S(=O)(=O)c1cccc(CSc2nnc(-c3ccc4c(c3)OCO4)o2)c1 | 12.6 | > 50.1 | > 39.8 | 2 | 0.501 | 0.1 | 0.0501 | > 100 | > 50.1 | 0.631 | 31.6 | 1
Oc1c(-c2nnc(CCc3ccccc3)[nH]2)ncc2cccnc12 | > 100 | 15.8 | 1.58 | 3.98 | 0.2 | 0.2 | 0.2 | 39.8 | 20 | 3.16 | 0.794 | 0.316
COc1cc(C2SCC(=O)Nc3c2c(C)nn3-c2nc3ccccc3s2)cc(OC)c1O (configuration not stated) | 5.01 | > 50.1 | > 39.8 | 0.316 | > 50.1 | > 50.1 | > 50.1 | > 100 | > 50.1 | 0.251 | 6.31 | 6.31
CCc1c(C)nc(-n2nc(C)cc2NC(=O)COc2ccccc2F)[nH]c1=O | > 100 | 2.51 | 0.2 | 7.94 | 0.631 | 0.631 | 0.158 | > 100 | 3.98 | 5.01 | 0.158 | 0.126
COc1ccc(-c2cc(C)no2)cc1S(=O)(=O)Nc1ccc(C)c(C)c1 | 15.8 | 15.8 | 20 | 2.51 | 5.01 | 7.94 | 5.01 | > 100 | > 50.1 | 2 | 20 | 7.94
COc1ccccc1CNc1cc(C2CC2)nc(-c2nccn2C)n1 | 20 | 0.631 | 2 | 0.501 | 0.891 | 0.794 | 1 | 20 | 15.8 | 0.398 | 2.51 | 1
O=C(Nc1nc(-c2ccc(F)cc2)cs1)c1ccc([N+](=O)[O-])s1 | 50.1 | 3.98 | 1.26 | 1.26 | 0.2 | 0.251 | 0.158 | 12.6 | 7.94 | 1 | 0.251 | 0.631
NCc1ccc2c(Cl)cc(Cl)c(O)c2n1 | 39.8 | 6.31 | 0.2 | 2 | 2.51 | 2 | 1.26 | 25.1 | 20 | 2 | 0.398 | 6.31
COc1ccc2ncc(F)c(CCN3CC[C@@H](NC(=O)c4cc5c(s4)CCC5)[C@@H](O)C3)c2n1 | 1.26 | 0.126 | 0.316 | 6.31 | 0.158 | 0.126 | 0.0501 | 50.1 | 25.1 | 1.26 | 0.1 | 1
